The values below are quoted from earlier work in US20150342920A1, “DERMATOLOGICAL COMPOSITIONS COMPRISING AT LEAST ONE RETINOID COMPOUND, AN ANTI-IRRITANT COMPOUND AND BENZOYL PEROXIDE” (GALDERMA RESEARCH & DEVELOPMENT, priority 2007, published 2015).

In the case of `O=C(OOC(=O)c1ccccc1)c1ccccc1` [benzoyl peroxide], the “degradation of benzoyl peroxide in solution” value (in solution, ethanol, propylene glycol and mixtures of PEG 400 and water, depends on type and concentration of solvent) is “degrades more or less rapidly”. For the same molecule, the “degradation of benzoyl peroxide in suspension” value (in suspension (disperse form) in water and in propylene glycol, after 90 days of storage) is on record as “not degraded”.
